Patent US20050239715A1, “Inhibition of allergic contact dermatitis by N-L-alpha-aspartyl-L-phenylalanine 1-methyl ester” (priority 2004, published 2005)
Residues, ends and D or L forms follow the SMILES beside them.

Assays:
[1] = tested on: capsaicin taste receptor (heat and irritation of the tongue); experiment: Oral application of APM with capsaicin-containing red pepper sauce; type: in vivo
From the text: The variability in observable results in preventing dermatitis or topical irritation appear related to the amount of APM that is applied, the time and order of the therapeutic application, and the presence of receptors to which either the irritant oil or APM may bind.

[2] = tested on: allergic contact dermatitis, skin previously exposed to urushiol; experiment: Example 1: treatment of allergic contact dermatitis with APM in a cream base; type: in vivo; details: thin film of APM in cream base, after sixty (60) minutes
From the text: To an area of skin previously exposed to urushiol is applied a thin film of APM in a cream base. […] Further treatment may include washing the affected area to remove and displace urushiol dissolved in the applied lotion and followed by reapplication of APM containing cream or lotion.

[3] = tested on: Urushiol-Induced Dermatitis on Human Skin; experiment: Example 3: treatment and prevention of urushiol-induced dermatitis on human skin (Patient 1); type: in vivo; details: topical lotion 0.5 to 1 mg APM/ml, two to three times per day, also two packets Equal by mouth
Protocol: The goats frequently consumed and were in contact with both poison sumac and poison ivy abundant in their enclosure without experiencing symptoms.
A topical APM preparation was made by mixing 2 to 3 packets of Equal® brand sweetner (80-120 mg of APM) with approximately 170 ml (5.5 fluid ounces) of lotion containing Vaseline® Intensive Care® Water Resistant Moisturizing Lotion (Unilever United States, Inc.), resulting in a lotion with 0.5 to 1 mg APM/ml. Patient 1 had previously used the lotion base without effect. Patient 1 also took two packets of Equal® brand sweetener by mouth in response to a symptom of diarrhea, a condition known to be associated with urishiol.
A soap and water scrub of the affected area was done one hour after application of the cream, and the affected area allowed to air dry.
Additional affected areas were then discovered on Patient 1, and a lotion was prepared for Patient 1 to use on these areas as well as unaffected areas that could come in contact with poison ivy during their work. Patient 1 used additional topical APM preparation approximately two to three times per day.

[4] = tested on: capsaicin burning and pain of mucosa; experiment: Example 8: APM after inadvertent mucosal contact with capsaicin cream; type: in vivo, human; details: preparation of 38 mg APM per 5 ml applied to affected area
Protocol: A patient is treated for arthritis with a capsaicin cream applied twice daily to the affected joint. Capsaicin is absorbed by the transdermal tissue and then transported to joint area. After an appropriate interval, for instance 2-5 days, significant reduction in swelling, heat, redness, and pain is observed. However, the patient also inadvertently contacts his or her urethra, periurethra tissues, vaginal mucosa, rectal mucosa, eyes, or nose with the capsaicin cream, resulting in a sensation of burning and pain in the affected area.

[5] = tested on: capsaicin burning of the eye; experiment: Example 7: capsaicin burning of the eye; type: in vivo, human; details: about 10 mg per 250 microliters in sterile saline applied to eye
Protocol: A kitchen worker is exposed to capsaicin oil from peppers during cooking preparation, the oil is transferred to their hands and then, by their hands, to their eyes, resulting in a burning sensation and pain. […] The application may be repeated in 15 min because tearing may dilute or wash away the active ingredients.

[6] = cited from earlier work
[7] = tested on: Urushiol-Induced Dermatitis on Human Skin; experiment: Example 2: prevention of urushiol-induced dermatitis on human skin; type: in vivo; details: thin film of APM suspended in petroleum cream base applied before exposure
From the text: To an area of skin which may be exposed to urushiol is applied a thin film of APM suspended in a petroleum cream base.

[8] = tested on: human rash secondary to urushiol exposure; experiment: Example 4: treatment of rash caused by urushiol; type: in vivo
Protocol: A human rash, with itching, in progress secondary to contact with an animal known to have had significant exposure to urushiol substances was arrested in 8 hours with 2 applications of aspartame in a Vaseline Intensive Care Lotion base (about 1.2 to 10 mg/ml). The itching ceased, and discomfort and irritation resolved within 8 hours.

COC(=O)[C@H](Cc1ccccc1)NC(=O)[C@@H](N)CC(=O)O [APM, N-L-alpha-aspartyl-L-phenylalanine 1-methyl ester] (H-Asp-Phe-OMe)
perception of spiciness of red pepper sauce ([1]; APM applied orally before red pepper sauce): absence of recognition of the spicyness
APM response after long duration of exposure to capsaicin ([1]; long exposure with secondary effects): not as strong nor as quick
response when APM is applied after sensations of heat and irritation developed ([1]; red pepper sauce applied to tongue first, APM after): manifested and recognized quickly
symptoms of allergic contact dermatitis [2]: significantly reduced
rash or reaction observed on the day after application [3]: no rash or reaction had occurred
burning and pain of affected area [4]: reducing or eliminating the burning and pain
burning sensation of the eye [5]: alleviated
pH at which cyclisation with formation of diketopiperazine occurs in APM solutions [6]: greater than 5
symptoms of allergic contact dermatitis [7]: either do not appear or are significantly reduced
time in which rash with itching was arrested ([8]; 2 applications in Vaseline Intensive Care Lotion base, about 1.2 to 10 mg/ml): 8 h
time in which itching ceased and discomfort and irritation resolved ([8]; 2 applications in lotion base, about 1.2 to 10 mg/ml): ≤ 8 h
state of rash overnight ([8]; overnight after 2 applications in lotion base): the rash was gone
